Results taken from patent US4906657A, “Bicyclo heptane and bicyclo octane substituted inhibitors of cholesterol synthesis” (Warner-Lambert Company, priority 1988, dated 1990).

Tested on: biosynthesis of cholesterol (rat liver homogenate)
Experiment: CSI screen (inhibition of sterol synthesis; incorporation of 14C-acetate into non-saponifiable lipid by rat liver homogenate)
Assay type: biochemical
Settings: 50% inhibition of sterol synthesis over a one-hour period
Method: The ability of compounds of the present invention to inhibit the biosynthesis of cholesterol was measured by a method (designated CSI screen) which utilizes the procedure described by R. E. Dugan, et al, Archiv. Biochem. Biophys., (1972), 152, 21-27. In this method, the level of HMG-CoA enzyme activity in standard laboratory rats is increased by feeding the rats a chow diet containing 5% cholestryramine for four days, after which the rats are sacrificed.
The rat livers are homogenized, and the incorporation of […] into non-saponifiable lipid by the rat liver homogenate is measured. The micromolar concentration of compound required for 50% inhibition of sterol synthesis over a one-hour period is measured, and expressed as an IC50 value.

Compound	IC50 [nM]
C=C1CC2(C)CC1C(c1ccccc1)=C2C=CC1CC(O)CC(=O)O1 (centres unmarked)	440
C=C1CC2(C)CC1C(c1ccccc1)=C2/C=C/[C@@H](O)C[C@@H](O)CC(=O)OCC (relative stereo)	440
